Test results as given in patent US7050620B2, “Method of assaying shape and structural features in cells” (priority 2001, dated 2006).
“Also recorded” adds a separate entry of the source.

Tests used:
[1] = tested on: IAR20 PC1 cells; experiment: Factor-based classification of cell shape phenotype from interference contours (predicted time in culture); design: species or system rat; details: for shift of signature-type (mean predicted time) versus control, in words / mean predicted time (signature-type, factor-based classification): 2 hr exposure; for shift of signature-type (mean predicted time) versus control, in words: taxanes 6–18 μM, baccatin III 9 μM, colchicine 2 μM; for factors used in classification whose values changed significantly: 2 h exposure; for mean predicted time (signature-type, factor-based classification): FIG. 1 experiment, 2 μM colchicine, 18 μM paclitaxel, 10 μM valinomycin, 0.5 μM gramicidin D, 200 μM quinidine, control 283 days; for factor #4 value (filopodia / sharp projections at cell edge) / factor #7 value (knob-like structures at the cell edge) / factor #8 value (sharp features in the second contour): versus control; for factor #12 value (slope at which cell rises from substratum, rounding-up): versus control / direction relative to signature-type; for factor #8 value (sharp features in the second contour): monensin 24 μM
Method: (§1) Cell lines and interference preparations. Equations were developed to define changes in the signature-type for two epithelial cell lines that underwent transformation over a prolonged time of in vivo culture. […] IAR20 PC1 was a clonal derivative of a line called IAR20, which was cultured from liver cells of a BD-VI rat. […] Liver cells were grown in William's E medium supplemented with 10% fetal bovine serum, whereas the tracheal cells were grown in Waymouth's medium containing fetal bovine serum plus 0.1 μg/ml insulin and 0.1 μg /ml hydrocortisone. The cells were maintained and subcultured as described elsewhere (1,3). For experiments with insulin supplementation, insulin concentrations were raised to 1 and 10 μg/ml and maintained for two passages before the cells were used.
(§2) Information about shape features was derived from interference images. These were generated by culturing cells on anodized tantalum substrates, and then imaging them in reflected light. Cells were plated on substrates in replicate dishes, left overnight, and then exposed to experimental agents or to the solvent vehicle alone. After incubation with the agents for 2–5 h, samples were recovered, fixed in buffered 3% glutaraldehyde (pH 7.3), and air-dried. Randomly selected cells were imaged in a Zeiss Universal microscope, and the outlines of their three lowermost interference contours were digitized. […] Each experimental treatment was represented by a total of 50 cells.
(§3) Classification procedures. The classification methods employed a subset of the contour shape variables. Each 50-cell sample was submitted to multiple linear regression analysis for classification alongside a group of cells representing normal and transformed reference samples. The latter were obtained from the lines that underwent transformation as described above. Because the signature-type value was assigned relative to these samples, the solutions were in units of predicted time in culture. After obtaining such a value for each cell in an experiment, the differences in mean predicted times for treated and control cells were calculated. The sum of the squared standard deviations, divided by the number of observations, n, was used to compute the confidence limits of the mean: (s1)^2/n+(s2)^2/n Where s was the standard deviation for each sample. Dividing the difference between the means by the square root of the above expression yields a value that can be related to the degree of confidence, 1-α. […] This value was equivalent to a probability that the two samples differed of P≦0.02.
(§4) Again, classification of samples from experiments employed multiple linear regression methods, based on factors scores rather than on contour shape variables. Factors were generated by combining into a single database, the contour shape variables from highly malignant epithelial cells and precancerous lines that change progressively, eventually become neoplastic. […] Principal components were extracted and transformed by a pattern of rotation to produce latent factors, which described variances that had thereby been rendered orthogonal (8). Factor scores for each cell represented in the database to be estimated. These factor scores from known IAR20 PC1 or 1000 W cells are used as a reference to classify data from short-term experiments on the respective samples. The factors used in classification were selected by the SAS REG procedure (8). […] Predicted time-in-culture values were obtained by submitting the experimental cells to analysis, as described above for simple variables. The statistical significance of differences among sample means within each experiment was determined by the Duncan multiple range test.

[2] = tested on: 1000 W cells; experiment: as above; design: species or system rat; details: for predicted time (factor-based classification): time zero 612 days; for number of the eight contour shape variables highly correlated with factor #4 that changed significantly: 1000 W cells, FIG. 7—Table 3; for change of signature-type versus control, in words: paclitaxel 2-h or 5 h exposure, insulin 0.1–10 μg/ml
Method: as §1, with “Equations were developed to define changes in the signature-type for two epithelial cell lines that underwent transformation over a prolonged time of in vivo culture.” left out
as §2, with “After incubation with the agents for 2–5 h, samples were recovered, fixed in buffered 3% glutaraldehyde (pH 7.3), and air-dried.” left out
as §3, §4

[3] = tested on: IAR20 PC1 cells; experiment: Indirect immunofluorescence localization of beta-tubulin (microtubule organization); type: cell-based, rat; details: for MT organization / arrangement, in words: exposure 2–5 h; for cells with MT bundles on both sides of the nucleus: taxane alone or IC with 2 μM colchicine
Method: Immunofluorescene localization of β-tubulin. IAR20 PC1 cells were subcultured onto sterile glass cover slips as described above. Replicate samples were exposed to test agents for 2–5 h alongside controls, and then fixed and left in methanol at −70° C. until used for the immunofluorescence procedure. To visualize arrays of MTs, cells were exposed to a mouse monoclonal anti-β tubulin antibody (Nycomed Amersham, Little Chalfont, Buckinghamshire, UK), made up at a 1:300 dilution. We used a 1:100 dilution of P3×63 monoclonal antibody from P3 myeloma (generous gift from J. Lessard) as a non-specific control. The secondary antibody, […] goat anti-mouse immunoglobulin G (US Biochemical Corp., Cleveland), was used at a dilution of 1:2000. Cover slips were processed and then mounted on a slide in a solution of 1,4-diazobicyclo[2.2.2]octane (Sigma) made up to 25 mg/ml in glycerol. The samples were photographed on a Zeiss Axiophot microscope equipped with a 63x Planapo lens. Images were recorded on Kodak Tri-X or T-Max film. All of the drugs, including paclitaxel, cephalomannine, colchicine, and baccatin III, were studied to see if they affected the arrangement of MTs. […] MT arrangement was unaltered after treatment with the above-mentioned ionophores and transport inhibitors.

[4] = tested on: IAR20 PC1 cells; experiment: Uptake of fluid-phase marker horseradish peroxidase; type: cell-based, rat; details: monensin treatment

In the case of `CC(=O)O[C@H]1C(=O)[C@]2(C)CC[C@H]3OC[C@@]3(OC(C)=O)[C@H]2[C@H](OC(=O)c2ccccc2)[C@]2(O)C[C@H](OC(=O)[C@H](O)[C@@H](NC(=O)c3ccccc3)c3ccccc3)C(C)=C1C2(C)C` [7-deoxytaxol], the “shift of signature-type (mean predicted time) versus control, in words” value [1] is reported as “failed to shift”.

In the case of `CCCCCCCCCCCCCC(=O)O[C@@H]1[C@@H](C)[C@@]2(O)[C@@H](C=C(CO)C[C@]3(O)C(=O)C(C)=C[C@@H]23)[C@@H]2C(C)(C)[C@]12OC(C)=O` [PMA, phorbol 12-myristate 13-acetate], the “predicted time (factor-based classification)” value ([2]; 30 min after PMA exposure) is reported as 648 days, the “predicted time (factor-based classification)” value ([2]; 2 h after PMA exposure) is reported as 663 days and the “predicted time (factor-based classification)” value ([2]; 5 h after PMA exposure) is reported as 668 days. For the same molecule, the “predicted time (factor-based classification)” value ([2]; 10 h after PMA exposure) was 604 days, the “factor #1 value” ([2]; PMA time course) was “significantly elevated for a brief period after exposure” and the “factor #2 value” ([2]; PMA, 10-h time point) was “significantly reduced below control”. For the same molecule, the “factor #7 value (knob-shaped projections on the cell edge)” value ([2]; PMA, one experiment) was “adopted values like those of transformed cells”, the “factor #16 value (size variability in projections at the cell edge)” value ([2]; PMA, one experiment) was “adopted values like those of transformed cells” and the “factor #4 value” ([2]; PMA, times between 0.5 and 5 h) was “indistinguishable from those of control samples”. For the same molecule, the “factor #12 value” ([2]; PMA, times between 0.5 and 5 h) was “indistinguishable from those of control samples”.

In the case of `CC(=O)O[C@H]1C(=O)[C@@]2(C)[C@H]([C@H](OC(=O)c3ccccc3)[C@]3(O)C[C@H](O)C(C)=C1C3(C)C)[C@]1(OC(C)=O)CO[C@@H]1C[C@@H]2O` [baccatin III, Baccatin III], the “shift of signature-type (mean predicted time) versus control, in words” value [1] is reported as “failed to shift” and the “MT organization / arrangement, in words” value [3] is reported as “little noticeable effect”.

For `C/C=C(\C)C(=O)N[C@@H](c1ccccc1)[C@@H](O)C(=O)O[C@H]1C[C@@]2(O)[C@@H](OC(=O)c3ccccc3)[C@@H]3[C@]4(OC(C)=O)CO[C@@H]4C[C@H](O)[C@@]3(C)C(=O)[C@H](OC(C)=O)C(=C1C)C2(C)C` [cephalomannine], the “shift of signature-type (mean predicted time) versus control, in words” value [1] was “failed to shift”, the “MT organization / arrangement, in words” value [3] was “caused MTs to aggregate in the form of arc-shaped bundles” and the “cells with MT bundles on both sides of the nucleus” value [3] was 71%.

For `CCN(CC)CCCC(C)Nc1ccnc2cc(Cl)ccc12` (stereo not shown) [chloroquine], the “factors used in classification whose values changed significantly” value [1] was “did not significantly change any of the factors” and the “mean predicted time (signature-type, factor-based classification)” value [1] was 315 days.

For `COc1cc2c(c(OC)c1OC)-c1ccc(OC)c(=O)cc1[C@@H](NC(C)=O)CC2` [colchicine], the “mean predicted time (signature-type, factor-based classification)” value [1] was 338 days, the “factor #4 value (filopodia / sharp projections at cell edge)” value [1] was “decreased” and the “factor #7 value (knob-like structures at the cell edge)” value [1] was “increased”. For the same molecule, the “factor #12 value (slope at which cell rises from substratum, rounding-up)” value [1] was “mimicked; also recorded: increased”, the mean predicted time ([2]; 2 μM colchicine for 2 hrs, cells grown in 0.1 μg/ml insulin, untreated 655 days) was 737 days and the mean predicted time ([2]; 2 μM colchicine for 2 hrs, cells grown in 1 μg/ml insulin, untreated 638 days) was 687 days. For the same molecule, the mean predicted time ([2]; 2 μM colchicine for 2 hrs, cells grown in 10 μg/ml insulin, untreated 637 days) was 673 days, the “factor #1 value (massive extensions or invaginations in the two uppermost contours)” value ([2]; colchicine exposure) was “increased” and the “average solution of predicted time” value ([2]; second experiment, colchicine-treated sample, control 636 days) was 689 days. For the same molecule, the “MT organization / arrangement, in words” value [3] was “complete depolymerization of MTs”.

In the case of `CC[C@@]1([C@@H]2O[C@@H]([C@H]3O[C@@](O)(CO)[C@H](C)C[C@@H]3C)C[C@@H]2C)CC[C@H]([C@]2(C)CC[C@]3(C[C@H](O)[C@@H](C)[C@@H]([C@@H](C)[C@@H](OC)[C@H](C)C(=O)O)O3)O2)O1` [monensin], the “average predicted time (factor-based classification)” value ([1]; 24 μM monensin alone or together with 50 μM ouabain, control 318 days) is reported as 344 days, the “factor #4 value (filopodia / sharp projections at cell edge)” value [1] is reported as “change in factor #4” and the “factor #8 value (sharp features in the second contour)” value [1] is reported as “affected”. For the same molecule, the “time after initial exposure by which horseradish peroxidase uptake was inhibited” value [4] was at most 30 min.

For `CC(=O)O[C@H]1C(=O)[C@@]2(C)[C@H]([C@H](OC(=O)c3ccccc3)[C@]3(O)C[C@H](OC(=O)[C@H](O)[C@@H](NC(=O)c4ccccc4)c4ccccc4)C(C)=C1C3(C)C)[C@]1(OC(C)=O)CO[C@@H]1C[C@@H]2O` [paclitaxel], the “factors used in classification whose values changed significantly” value [1] was “changes in factors #1, #7, and #12”, the “shift of signature-type (mean predicted time) versus control, in words” value [1] was “failed to promote the signature-type” and the “mean predicted time (signature-type, factor-based classification)” value [1] was 304 days. For the same molecule, the “factors whose values changed” value ([1]; paclitaxel at a high concentration over a 4-h period) was “changes in #1, #7, #8, and #13”, the “factor #12 value (slope at which cell rises from substratum, rounding-up)” value [1] was “counteracted” and the “number of the eight contour shape variables highly correlated with factor #4 that changed significantly” value [2] was “six of their values differed significantly”. The “number of the eight contour shape variables highly correlated with factor #4 that changed significantly” value ([2]; listed as Paclitaxel) was “six out of the eight”, the “change of signature-type versus control, in words” value [2] was “failed to elicit any change” and the “MT organization / arrangement, in words” value [3] was “large bundles of MTs”. The “cells with MT bundles on both sides of the nucleus” value [3] was 56%.

For `CC(C)[C@@H]1NC(=O)[C@H](C)OC(=O)[C@@H](C(C)C)NC(=O)[C@@H](C(C)C)OC(=O)[C@H](C(C)C)NC(=O)[C@H](C)OC(=O)[C@@H](C(C)C)NC(=O)[C@@H](C(C)C)OC(=O)[C@H](C(C)C)NC(=O)[C@H](C)OC(=O)[C@@H](C(C)C)NC(=O)[C@@H](C(C)C)OC1=O` [valinomycin], the “mean predicted time (signature-type, factor-based classification)” value [1] was 336 days, the “factor #4 value (filopodia / sharp projections at cell edge)” value [1] was “change in factor #4” and the “factor #8 value (sharp features in the second contour)” value [1] was “affected”.

In the case of gramicidin D, the “mean predicted time (signature-type, factor-based classification)” value [1] is reported as 387 days, the “factor #4 value (filopodia / sharp projections at cell edge)” value [1] is reported as “change in factor #4” and the “factor #7 value (knob-like structures at the cell edge)” value [1] is reported as “increase”.

insulin was tested, and the mean predicted time ([2]; grown in 0.1 μg/ml insulin, no colchicine) was 655 days, the mean predicted time ([2]; grown in 1 μg/ml insulin, no colchicine) was 638 days and the mean predicted time ([2]; grown in 10 μg/ml insulin, no colchicine) was 637 days. For the same molecule, the “change of signature-type versus control, in words” value [2] was “no significant differences”.
